In the assay the target is T1, LPLAT8/LPCAT1 (Homo sapiens, UniProt Q8NF37).
T1 construct: transiently expressed in HEK 293T; 100,000 g membrane fraction
T1 sequence (Q8NF37 1-534): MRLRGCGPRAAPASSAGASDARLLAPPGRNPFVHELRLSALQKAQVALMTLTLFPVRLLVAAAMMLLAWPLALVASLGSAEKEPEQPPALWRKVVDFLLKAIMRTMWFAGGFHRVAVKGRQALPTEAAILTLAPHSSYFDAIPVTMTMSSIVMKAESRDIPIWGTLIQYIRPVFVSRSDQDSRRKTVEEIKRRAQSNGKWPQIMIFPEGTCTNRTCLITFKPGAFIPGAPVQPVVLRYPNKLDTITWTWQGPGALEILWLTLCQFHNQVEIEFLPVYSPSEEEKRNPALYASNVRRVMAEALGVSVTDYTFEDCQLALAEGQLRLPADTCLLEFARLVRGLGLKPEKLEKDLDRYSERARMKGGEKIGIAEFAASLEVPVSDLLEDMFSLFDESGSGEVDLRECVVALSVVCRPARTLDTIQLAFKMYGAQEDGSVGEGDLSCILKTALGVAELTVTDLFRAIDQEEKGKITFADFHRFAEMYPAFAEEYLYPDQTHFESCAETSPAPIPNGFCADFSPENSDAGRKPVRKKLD
Kind of assay: LC-MS/MS acyltransferase assay, membrane fraction. Conditions: pH 7.4, 37 °C. The format is biochemical.

With `CCCCCCCCCCCCCCCCCCCCCCCCCC(=O)SCCNC(=O)CCNC(=O)[C@H](O)C(C)(C)COP(=O)(O)OP(=O)(O)OC[C@H]1O[C@@H](n2cnc3c(N)ncnc32)[C@H](O)[C@@H]1OP(=O)(O)O` [C26:0-CoA], the “LC-MS/MS acyltransferase assay, membrane fraction” value (10 µM acyl-CoA, acceptor 2-16:0-d31-LPC 20 µM) is “LPLAT8/LPCAT1, which has very high homology with LPLAT10 in terms of amino acid sequence, showed slight activity”.

As for `CCCCCCCCCCCCCCCC(=O)O[C@H](CO)COP(=O)([O-])OCC[N+](C)(C)C` [2-16:0-d31-LPC], the “LC-MS/MS acyltransferase assay, membrane fraction” value (donor C26:0-CoA 10 µM, LPC 20 µM, labelled compound) is “C26:0-CoA transfer activity was not significantly different between 2-acyl-LPC and 1-acyl-LPC”.

These data come from article PMC12859765, “Phosphatidylcholine with C26:0 moiety, a precursor of a diagnostic marker for X-ALD, is synthesized by LPLAT10/LPEAT2” (Journal of Lipid Research, 2025).
